In brackets after ≈: the same amount, converted by molar mass. Values belong to the molecule of their own block, whether it stands above or below them.
What was measured:
Assay in all cases: ≥ marks a high value that may be exact or a test limit, other limits are often not marked, values filed in µg/mL are converted to µM
Escherichia coli JW0013 = test system: Escherichia coli JW0013
[1] = test system: Pseudomonas aeruginosa ATCC 9027
[2] = test system: Staphylococcus aureus ATCC 6538
Acinetobacter baumannii = test system: Acinetobacter baumannii
[3] = test system: Escherichia coli ATCC 25922
[4] = test system: Klebsiella pneumoniae ATCC 700603
[5] = test system: Staphylococcus aureus ATCC 25923
[6] = test system: Bacillus subtilis ATCC 6633
[7] = test system: Candida albicans ATCC 10231
[8] = test system: Escherichia coli KCTC 1682
[9] = test system: Pseudomonas aeruginosa KCTC 1637
[10] = test system: Salmonella typhimurium KCTC 1926
[11] = test system: Staphylococcus aureus KCTC 1621
[12] = test system: Staphylococcus epidermidis KCTC 1917
Micrococcus luteus = test system: Micrococcus luteus
Escherichia coli = test system: Escherichia coli
[13] = test system: Klebsiella pneumoniae ATCC 13883
Klebsiella pneumoniae = test system: Klebsiella pneumoniae
[14] = test system: Pseudomonas aeruginosa ATCC 27853
Pseudomonas aeruginosa = test system: Pseudomonas aeruginosa
Staphylococcus aureus = test system: Staphylococcus aureus
[15] = test system: Staphylococcus epidermidis

Structure (SMILES): CC(C)C[C@H](NC(=O)[C@H](C)NC(=O)[C@H](CCCCN)NC(=O)[C@H](CCCCN)NC(=O)[C@H](CC(C)C)NC(=O)[C@H](C)NC(=O)[C@H](CCCCN)NC(=O)[C@H](CC(C)C)NC(=O)[C@H](C)NC(=O)[C@H](CC(C)C)NC(=O)[C@H](C)NC(=O)[C@@H](N)Cc1ccccc1)C(N)=O [FALALKALKKAL]
- MIC [1]: 38.9 µM (≈ 50 µg/mL)
- MIC [2]: 3.89 µM (≈ 5 µg/mL)

Structure (SMILES): CC[C@H](C)[C@H](NC(=O)[C@H](Cc1ccc(O)cc1)NC(=O)[C@H](CCCCN)NC(=O)[C@H](CCCCN)NC(=O)[C@H](CC(C)C)NC(=O)[C@H](CC(C)C)NC(=O)[C@H](CCCCN)NC(=O)[C@H](CCCCN)NC(=O)[C@@H](NC(=O)[C@H](CC(C)C)NC(=O)[C@@H](N)CCCCN)C(C)C)C(=O)N[C@H](C(=O)N[C@@H](Cc1ccccc1)C(=O)O)[C@@H](C)O [KLVKKLLKKYITF]
- MIC (Acinetobacter baumannii): ≥ 64 µM
- MIC [3]: > 64 µM
- MIC [4]: > 64 µM
- MIC [1]: 4 µM (≈ 6.49 µg/mL)
- MIC [5]: > 64 µM

Structure (SMILES): CC(C)C[C@H](NC(=O)[C@H](CCCCN)NC(=O)[C@H](CCCCN)NC(=O)[C@H](C)NC(=O)[C@H](CC(C)C)NC(=O)[C@H](CCCCN)NC(=O)[C@H](C)NC(=O)[C@H](CCCCN)NC(=O)[C@H](CCCCN)NC(=O)[C@H](C)NC(=O)[C@H](CC(C)C)NC(=O)[C@H](CCCCN)NC(=O)[C@H](CCCCN)NC(=O)[C@H](C)NC(=O)[C@@H](N)Cc1ccccc1)C(N)=O [FAKKLAKKAKLAKKL]
- MIC [1]: 59.3 µM (≈ 99.9 µg/mL)
- MIC [2]: 119 µM (≈ 200 µg/mL)

Structure (SMILES): CC[C@H](C)[C@H](NC(=O)[C@H](CCCN=C(N)N)NC(=O)[C@H](CCCN=C(N)N)NC(=O)[C@@H]1CCCN1C(=O)[C@@H]1CCCN1C(=O)[C@H](CCCN=C(N)N)NC(=O)[C@@H]1CCCN1C(=O)[C@H](CCCN=C(N)N)NC(=O)[C@@H]1CCCN1C(=O)[C@H](CC(C)C)NC(=O)[C@H](Cc1ccc(O)cc1)NC(=O)[C@@H]1CCCN1C(=O)[C@@H]1CCCN1C(=O)[C@H](CCCCN)NC(=O)[C@H](CC(=O)O)NC(=O)[C@H](C)N)C(=O)N[C@@H](Cc1ccc(O)cc1)C(=O)N[C@@H](CC(N)=O)C(=O)N[C@@H](CCCN=C(N)N)C(N)=O [ADKPPYLPRPRPPRRIYNR]
- MIC (Escherichia coli JW0013): 2.03 µM (≈ 4.8 µg/mL)

Structure (SMILES): CC(C)C[C@H](NC(=O)[C@H](CCCCN)NC(=O)[C@H](CC(C)C)NC(=O)[C@H](C)NC(=O)[C@H](CCCCN)NC(=O)[C@H](C)NC(=O)[C@H](CC(C)C)NC(=O)[C@H](CC(C)C)NC(=O)[C@H](CCCCN)NC(=O)[C@H](CCCCN)NC(=O)[C@H](C)NC(=O)[C@@H](N)Cc1ccccc1)C(N)=O [FAKKLLAKALKL]
- MIC [1]: 149 µM (≈ 200 µg/mL)
- MIC [2]: > 149 µM

Structure (SMILES): C[C@H](NC(=O)[C@H](Cc1c[nH]c2ccccc12)NC(=O)[C@H](CCCCN)NC(=O)[C@H](CCCN=C(N)N)NC(=O)CNC(=O)[C@H](Cc1c[nH]c2ccccc12)NC(=O)[C@H](CCCN=C(N)N)NC(=O)[C@H](CCCN=C(N)N)NC(=O)[C@H](Cc1c[nH]c2ccccc12)NC(=O)CNC(=O)[C@@H](N)CCCN=C(N)N)C(=O)N[C@@H](Cc1cnc[nH]1)C(=O)NCC(=O)N[C@@H](Cc1c[nH]c2ccccc12)C(=O)N[C@@H](CCCCN)C(=O)N[C@@H](CCCCN)C(=O)N[C@@H](Cc1ccc(O)cc1)C(=O)NCC(N)=O [RGWRRWGRKWAHGWKKYG]
- MIC [8]: 4 µM (≈ 9.48 µg/mL)
- MIC [9]: 8 µM (≈ 19 µg/mL)
- MIC [10]: 2 µM (≈ 4.74 µg/mL)
- MIC [11]: 4 µM (≈ 9.48 µg/mL)
- MIC [12]: 2 µM (≈ 4.74 µg/mL)

Structure (SMILES): CC[C@H](C)[C@H](NC(=O)CNC(=O)[C@H](CO)NC(=O)[C@H](CC(C)C)NC(=O)[C@H](C)NC(=O)[C@H](CC(=O)O)NC(=O)[C@H](CC(C)C)NC(=O)[C@H](CC(C)C)NC(=O)CN)C(=O)N[C@@H](CC(C)C)C(=O)NCC(=O)N[C@@H](CC(C)C)C(N)=O [GLLDALSGILGL]
- MIC (Micrococcus luteus): 21.9 µM (≈ 25 µg/mL)

Structure (SMILES): CC(C)[C@H](NC(=O)CNC(=O)[C@@H](N)Cc1cnc[nH]1)C(=O)N[C@@H](CO)C(=O)NCC(=O)N[C@@H](Cc1cnc[nH]1)C(=O)NCC(=O)N[C@@H](CCC(N)=O)C(=O)N[C@@H](Cc1cnc[nH]1)C(=O)NCC(=O)N[C@H](C(=O)N[C@@H](Cc1cnc[nH]1)C(=O)NCC(=O)O)[C@@H](C)O [HGVSGHGQHGTHG]
- MIC [3]: 3.16 µM (≈ 4 µg/mL)
- MIC (Escherichia coli): 6.31 µM (≈ 8 µg/mL)
- MIC [13]: 6.31 µM (≈ 8 µg/mL)
- MIC (Klebsiella pneumoniae): 6.31 µM (≈ 8 µg/mL)
- MIC [14]: 6.31 µM (≈ 8 µg/mL)
- MIC (Pseudomonas aeruginosa): 12.6 µM (≈ 16 µg/mL)
- MIC [5]: 6.31 µM (≈ 8 µg/mL)
- MIC (Staphylococcus aureus): 12.6 µM (≈ 16 µg/mL)
- MIC [15]: 12.6 µM (≈ 16 µg/mL)

Structure (SMILES): CC(C)C[C@H](NC(=O)[C@H](C)NC(=O)[C@H](CCCCN)NC(=O)[C@H](CCCCN)NC(=O)[C@H](C)NC(=O)[C@H](CCCCN)NC(=O)[C@H](CCCCN)NC(=O)[C@H](CC(C)C)NC(=O)[C@H](C)NC(=O)[C@H](CCCCN)NC(=O)[C@H](CCCCN)NC(=O)[C@H](C)NC(=O)[C@H](CC(C)C)NC(=O)[C@H](C)NC(=O)[C@@H](N)Cc1ccccc1)C(N)=O [FALAKKALKKAKKAL]
- MIC [1]: 15.3 µM (≈ 25 µg/mL)
- MIC [2]: 61.4 µM (≈ 99.9 µg/mL)

Continued, values first:

- MIC (Escherichia coli JW0013): 0.978 µM (≈ 2.4 µg/mL)
Structure (SMILES): CC[C@H](C)[C@H](NC(=O)[C@H](CCCN=C(N)N)NC(=O)[C@H](CCCN=C(N)N)NC(=O)[C@@H]1CCCN1C(=O)[C@@H]1CCCN1C(=O)[C@H](CCCN=C(N)N)NC(=O)[C@@H]1CCCN1C(=O)[C@H](CCCN=C(N)N)NC(=O)[C@@H]1CCCN1C(=O)[C@H](CC(C)C)NC(=O)[C@H](CCCN=C(N)N)NC(=O)[C@H](Cc1cnc[nH]1)NC(=O)[C@H](CCCCN)NC(=O)[C@H](CCCCN)NC(=O)[C@H](CC(=O)O)NC(=O)[C@@H](N)C(C)C)C(=O)N[C@@H](Cc1ccc(O)cc1)C(=O)N[C@@H](CC(N)=O)C(=O)N[C@@H](CCCN=C(N)N)C(N)=O [VDKKHRLPRPRPPRRIYNR]

- MIC (Escherichia coli JW0013): 0.532 µM (≈ 1.3 µg/mL)
Structure (SMILES): CC[C@H](C)[C@H](NC(=O)[C@H](CCCN=C(N)N)NC(=O)[C@H](CCCN=C(N)N)NC(=O)[C@@H]1CCCN1C(=O)[C@@H]1CCCN1C(=O)[C@H](CCCN=C(N)N)NC(=O)[C@@H]1CCCN1C(=O)[C@H](CCCN=C(N)N)NC(=O)[C@@H]1CCCN1C(=O)[C@H](CC(C)C)NC(=O)[C@H](CCCN=C(N)N)NC(=O)[C@@H]1CCCN1C(=O)[C@H](CCCN=C(N)N)NC(=O)[C@H](CCCCN)NC(=O)[C@H](CC(=O)O)NC(=O)[C@@H](N)C(C)C)C(=O)N[C@@H](Cc1ccc(O)cc1)C(=O)N[C@@H](CC(N)=O)C(=O)N[C@@H](CCCN=C(N)N)C(N)=O [VDKRPRLPRPRPPRRIYNR]

- MIC (Escherichia coli JW0013): 0.3 µM (≈ 0.636 µg/mL)
Structure (SMILES): CC(C)C[C@H](NC(=O)[C@H](CCCN=C(N)N)NC(=O)[C@@H]1CCCN1C(=O)[C@@H]1CCCN1C(=O)[C@H](CCCN=C(N)N)NC(=O)[C@@H]1CCCN1C(=O)[C@H](CCCN=C(N)N)NC(=O)[C@H](CCCN=C(N)N)NC(=O)[C@H](CCCN=C(N)N)NC(=O)[C@@H](N)CCCN=C(N)N)C(=O)N1CCC[C@H]1C(=O)N[C@@H](CCCN=C(N)N)C(=O)N1CCC[C@H]1C(=O)N[C@@H](CCCN=C(N)N)C(=O)N1CCC[C@H]1C(=O)N[C@@H](CCCN=C(N)N)C(=O)O [RRRRPRPPRLPRPRPR]

- MIC [6]: 27.3 µM (≈ 37.5 µg/mL)
- MIC [7]: 54.7 µM (≈ 75 µg/mL)
- MIC [3]: 54.7 µM (≈ 75 µg/mL)
- MIC [5]: > 72.9 µM
Structure (SMILES): CC(C)C[C@H](NC(=O)[C@@H]1CCCN1C(=O)[C@H](CCCCN)NC(=O)[C@@H]1CCCN1C(=O)[C@H](Cc1ccc(O)cc1)NC(=O)[C@H](CCCCN)NC(=O)[C@H](Cc1c[nH]c2ccccc12)NC(=O)[C@@H](N)CCCN=C(N)N)C(=O)N[C@@H](CCCCN)C(=O)N[C@@H](CCCN=C(N)N)C(=O)O [RWKYPKPLKR]

- MIC (Escherichia coli JW0013): 0.316 µM (≈ 0.8 µg/mL)
Structure (SMILES): CC[C@H](C)[C@H](NC(=O)[C@H](CCCN=C(N)N)NC(=O)[C@H](CCCN=C(N)N)NC(=O)[C@@H]1CCCN1C(=O)[C@@H]1CCCN1C(=O)[C@H](CCCN=C(N)N)NC(=O)[C@@H]1CCCN1C(=O)[C@H](CCCN=C(N)N)NC(=O)[C@@H]1CCCN1C(=O)[C@H](CCCN=C(N)N)NC(=O)[C@H](Cc1ccc(O)cc1)NC(=O)[C@H](Cc1cnc[nH]1)NC(=O)[C@H](CCCN=C(N)N)NC(=O)[C@H](CCCCN)NC(=O)[C@H](CC(=O)O)NC(=O)[C@@H](N)C(C)C)C(=O)N[C@@H](Cc1ccc(O)cc1)C(=O)N[C@@H](CC(N)=O)C(=O)N[C@@H](CCCN=C(N)N)C(N)=O [VDKRHYRPRPRPPRRIYNR]

Reference: DBAASP
